Reference: patent publication US5457095A, “Substituted propane-phosponous acid compounds” (Ciba-Geigy Corporation, priority 1984, dated 1995)

How the values were obtained:
GABAB receptor sites = GABAB receptor sites (Homo sapiens, UniProt Q9UBS5); assay: affinity towards GABAB receptor sites; format: binding
rotarod mice = assay: muscle relaxant activity, rotarod mice; format: in vivo; conditions: Mus musculus, ip, read-out: ID50-value, muscle relaxant (rotarod mice)
[1] = system: phenylquinone writhing in mice; assay: analgesic activity, phenylquinone writhing in mice; format: in vivo; conditions: Mus musculus, po
[2] = system: audiogenic seizures in DBA/2 mice; assay: anticonvulsant activity, audiogenic seizures in DBA/2 mice; format: in vivo; conditions: Mus musculus, ip, read-out: ID50-value, anticonvulsant (audiogenic seizures in DBA/2 mice)
lethality at high dose = format: in vivo; conditions: dose of 200 mg/kg i.p.

GABAB receptor sites, sequence (Q9UBS5 15-961 limits assumed): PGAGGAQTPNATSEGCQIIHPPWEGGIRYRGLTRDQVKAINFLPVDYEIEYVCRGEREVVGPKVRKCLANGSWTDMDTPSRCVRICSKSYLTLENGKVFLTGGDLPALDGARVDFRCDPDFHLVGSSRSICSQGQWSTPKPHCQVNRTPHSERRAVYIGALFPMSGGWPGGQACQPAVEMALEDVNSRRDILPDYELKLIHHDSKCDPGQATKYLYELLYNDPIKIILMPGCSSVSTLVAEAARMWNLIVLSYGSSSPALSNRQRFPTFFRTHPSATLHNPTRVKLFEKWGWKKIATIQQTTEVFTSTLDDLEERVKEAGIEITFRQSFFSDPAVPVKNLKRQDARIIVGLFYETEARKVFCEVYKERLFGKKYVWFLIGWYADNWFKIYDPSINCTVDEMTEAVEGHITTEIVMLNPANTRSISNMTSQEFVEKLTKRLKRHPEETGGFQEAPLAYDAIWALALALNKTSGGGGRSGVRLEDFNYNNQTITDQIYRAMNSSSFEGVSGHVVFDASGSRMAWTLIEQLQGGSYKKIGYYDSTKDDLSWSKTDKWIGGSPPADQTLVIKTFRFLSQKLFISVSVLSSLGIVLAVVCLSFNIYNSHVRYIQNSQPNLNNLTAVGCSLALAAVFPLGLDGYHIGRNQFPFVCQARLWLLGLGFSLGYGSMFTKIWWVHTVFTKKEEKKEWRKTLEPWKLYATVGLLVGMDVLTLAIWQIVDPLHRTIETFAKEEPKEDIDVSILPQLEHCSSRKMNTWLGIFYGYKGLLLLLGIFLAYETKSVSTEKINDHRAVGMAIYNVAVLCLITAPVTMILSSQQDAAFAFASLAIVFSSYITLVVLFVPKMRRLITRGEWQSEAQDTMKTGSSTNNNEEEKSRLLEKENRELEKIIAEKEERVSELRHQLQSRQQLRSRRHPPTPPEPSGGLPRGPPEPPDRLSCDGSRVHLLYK
GABAB receptor sites, sequence (O75899 42-941 partner): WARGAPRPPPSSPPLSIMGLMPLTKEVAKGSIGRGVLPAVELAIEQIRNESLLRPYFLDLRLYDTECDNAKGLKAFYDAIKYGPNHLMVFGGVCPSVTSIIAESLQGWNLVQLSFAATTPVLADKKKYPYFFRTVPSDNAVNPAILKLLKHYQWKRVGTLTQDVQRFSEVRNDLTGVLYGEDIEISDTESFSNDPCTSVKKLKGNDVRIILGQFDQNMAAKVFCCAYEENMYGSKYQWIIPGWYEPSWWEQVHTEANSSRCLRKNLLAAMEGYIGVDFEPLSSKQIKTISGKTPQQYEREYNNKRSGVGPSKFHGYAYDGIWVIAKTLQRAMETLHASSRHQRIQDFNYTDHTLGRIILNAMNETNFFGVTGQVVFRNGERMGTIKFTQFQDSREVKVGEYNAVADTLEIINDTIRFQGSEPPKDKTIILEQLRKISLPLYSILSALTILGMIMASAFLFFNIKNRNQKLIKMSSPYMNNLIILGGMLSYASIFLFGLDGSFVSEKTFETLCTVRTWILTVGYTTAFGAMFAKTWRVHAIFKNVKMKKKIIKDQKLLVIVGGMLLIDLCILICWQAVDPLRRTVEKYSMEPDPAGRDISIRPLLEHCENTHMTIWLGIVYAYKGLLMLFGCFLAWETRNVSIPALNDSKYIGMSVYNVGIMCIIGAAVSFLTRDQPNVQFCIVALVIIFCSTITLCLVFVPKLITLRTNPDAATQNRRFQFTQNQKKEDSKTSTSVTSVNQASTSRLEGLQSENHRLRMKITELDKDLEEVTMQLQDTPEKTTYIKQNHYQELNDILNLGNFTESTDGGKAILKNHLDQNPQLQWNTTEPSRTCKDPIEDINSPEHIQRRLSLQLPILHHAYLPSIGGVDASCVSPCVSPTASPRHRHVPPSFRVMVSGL

Row | Structure (SMILES) | activity relative to baclofen (times more pronounced) (GABAB receptor sites; compared with baclofen) | IC50 (GABAB receptor sites; read-out: IC50-value at the GABAB receptor site) [µM] | ED50 (rotarod mice) [mg/kg] | ED50 [1] [mg/kg] | ED50 [2] [mg/kg] | deaths (lethality at high dose)
1 | NCCCP(O)O [Example 1, 3-aminopropylphosphonous acid] | at least 20 times | – | – | – | – | –
2 | NCC(CP(O)O)c1ccc(Cl)cc1 (stereo not drawn) [Example 8, 3-amino-2-(4-chlorophenyl)propylphosphonous acid] | – | 0.035 | 6 to 9 | 4 | 6 | no deaths were observed
